“And” between values parts separate entries of the source, which are not always exact repeats. Equal values may be shown once.
Tests used:
[1] = target: T1, Inhibitor of nuclear factor kappa-B kinase subunit epsilon (Homo sapiens) (UniProt Q14164); conditions: at 1 µM
T1 sequence (whole entry): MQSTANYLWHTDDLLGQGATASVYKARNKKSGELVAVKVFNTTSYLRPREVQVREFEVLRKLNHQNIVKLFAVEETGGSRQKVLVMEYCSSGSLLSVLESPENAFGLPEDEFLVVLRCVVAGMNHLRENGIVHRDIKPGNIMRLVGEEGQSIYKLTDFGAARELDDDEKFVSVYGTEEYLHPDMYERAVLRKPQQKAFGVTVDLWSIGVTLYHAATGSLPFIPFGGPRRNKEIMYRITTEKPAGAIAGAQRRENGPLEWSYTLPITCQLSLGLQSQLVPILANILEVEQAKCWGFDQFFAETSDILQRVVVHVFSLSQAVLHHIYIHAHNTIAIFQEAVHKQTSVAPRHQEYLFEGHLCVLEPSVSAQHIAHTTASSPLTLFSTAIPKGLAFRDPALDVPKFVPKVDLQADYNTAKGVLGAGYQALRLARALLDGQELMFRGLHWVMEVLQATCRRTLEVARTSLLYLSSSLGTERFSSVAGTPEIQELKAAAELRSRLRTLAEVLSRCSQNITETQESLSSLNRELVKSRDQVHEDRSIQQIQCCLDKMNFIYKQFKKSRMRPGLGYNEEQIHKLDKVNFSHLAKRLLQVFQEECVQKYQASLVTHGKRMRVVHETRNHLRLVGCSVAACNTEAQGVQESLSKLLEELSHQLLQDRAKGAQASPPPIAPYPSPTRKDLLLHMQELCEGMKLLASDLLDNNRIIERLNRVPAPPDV

[2] = target: T2, Serine/threonine-protein kinase TBK1 (Homo sapiens) (UniProt Q9UHD2); conditions: at 1 µM
T2 sequence (whole entry): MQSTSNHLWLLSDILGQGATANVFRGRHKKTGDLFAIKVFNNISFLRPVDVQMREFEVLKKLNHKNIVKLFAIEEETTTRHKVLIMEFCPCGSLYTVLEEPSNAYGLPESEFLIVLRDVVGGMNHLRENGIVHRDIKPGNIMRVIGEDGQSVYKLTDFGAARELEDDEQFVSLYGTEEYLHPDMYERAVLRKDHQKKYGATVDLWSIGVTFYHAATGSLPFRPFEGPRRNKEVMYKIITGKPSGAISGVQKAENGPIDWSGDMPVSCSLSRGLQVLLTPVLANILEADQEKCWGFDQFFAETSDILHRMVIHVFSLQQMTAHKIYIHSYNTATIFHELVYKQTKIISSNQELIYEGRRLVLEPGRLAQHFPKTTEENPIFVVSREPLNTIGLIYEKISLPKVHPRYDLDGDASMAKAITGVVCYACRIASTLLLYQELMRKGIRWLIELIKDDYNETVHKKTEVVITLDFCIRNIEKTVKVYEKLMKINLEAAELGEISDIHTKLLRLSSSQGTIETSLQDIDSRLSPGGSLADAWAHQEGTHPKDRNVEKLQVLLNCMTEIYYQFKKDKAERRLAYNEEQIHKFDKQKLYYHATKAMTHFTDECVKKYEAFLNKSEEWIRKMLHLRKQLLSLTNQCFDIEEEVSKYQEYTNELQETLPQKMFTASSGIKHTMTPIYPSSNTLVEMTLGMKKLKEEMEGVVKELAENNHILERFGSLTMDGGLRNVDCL

| SMILES | inhibition [1] | inhibition [2] |
| --- | --- | --- |
| COc1cc(/C=N/Nc2ncnc3[nH]ncc23)ccc1O | 20% | 31% and 33% |
| COC(=O)Nc1nc2cc(Oc3ccc(NC(=O)Nc4cccc(Br)c4)cc3)ccc2[nH]1 | -3% and 0% | 0% and 2% |
| NS(=O)(=O)c1ccc(N/N=C2\C(=O)Nc3ccc(C(=O)NCCc4c[nH]cn4)cc32)cc1 | 17% and 15% | 32% and 29% |
| Nc1nonc1-c1nc2cnccc2n1C1CCCCC1 | 25% | 36% and 37% |
| Fc1cccc(COc2ccc(Nc3ncnc4sc(-c5ccco5)cc34)cc2Cl)c1 | 0% and 2% | 41% and 42% |
| COc1cccc(/C=N/Nc2ncnc3c2cnn3-c2cccc(OC)c2)c1 | -1% and 1% | 2% and 1% |
| CNC(=O)c1sc(-n2cnc3cc(OC)c(OC)cc32)cc1OCc1ccccc1C(F)(F)F | -3% and -2% | 3% and 2% |
| COC(=O)c1sc(-n2cnc3cc(OC)c(OC)cc32)cc1OCc1ccccc1C(F)(F)F | 13% and 11% | 37% and 39% |
| O=S(=O)(CCOCc1ccc(-c2ccc3ncnc(Nc4ccc(OCc5cccc(F)c5)c(Cl)c4)c3c2)o1)c1ccccc1 | -2% and -1% | -2% and 1% |
| CN1CCC(n2cnc(-c3ccc(F)cc3)c2-c2ccnc(NCCO)n2)CC1 | -3% | -6% and -9% |
| NS(=O)(=O)c1cccc(Nc2cc(-c3ccc(F)cc3)n[nH]2)c1 | 5% | 23% and 21% |
| COc1ccc(-c2coc3ncnc(N)c23)cc1 | -4% | -7% and -5% |
| Nc1ncc(-c2cccc(S(N)(=O)=O)c2)c2scc(-c3ccc(F)c(Cl)c3)c12 | 1% and 2% | 0% |
| COc1cc2c(cc1Nc1nc(Nc3cccc(F)c3C(N)=O)c3cc[nH]c3n1)N(C(=O)CN1CCN(C(C)C)CC1)CC2 | -1% and -2% | -2% and -6% |
| CS(=O)(=O)CCNCc1ccc(-c2ccc3ncnc(Nc4ccc(OCc5cccc(C(F)(F)F)c5)cc4)c3c2)o1 | 1% and -1% | -3% and -1% |
| NC(=O)c1cccc(Nc2nccc(Nc3cccc(F)c3)n2)c1 | 13% and 12% | 6% and 11% |
| CCN1CCC(C(=O)Nc2n[nH]c3nnc(-c4cccc(F)c4F)cc23)CC1 | -1% and -3% | -3% and -6% |
| COC(=O)Nc1nc2ccc(Sc3ccc(NC(=O)Nc4cc(C(F)(F)F)ccc4F)cc3)cc2[nH]1 | -2% and -1% | -3% |
